In patent US11208412B2 (DAEGU-GYEONGBUK MEDICAL INNOVATION FOUNDATION, priority 2017, dated 2021):

How the values were obtained:
Experiment in all cases: Kinase selectivity, DiscoverX scanMAX Kinase assay panel (% control)
Type in all cases: binding
[1] = target: T1, kinases of the scanMAX Kinase assay panel (Homo sapiens, UniProt Q13470); settings: kinase TNK1; 1 uM in DMSO
T1 construct: purchased DiscoverX Co. (contract measurement) scanMAX Kinase assay panel
T1 sequence (Q13470 1-666): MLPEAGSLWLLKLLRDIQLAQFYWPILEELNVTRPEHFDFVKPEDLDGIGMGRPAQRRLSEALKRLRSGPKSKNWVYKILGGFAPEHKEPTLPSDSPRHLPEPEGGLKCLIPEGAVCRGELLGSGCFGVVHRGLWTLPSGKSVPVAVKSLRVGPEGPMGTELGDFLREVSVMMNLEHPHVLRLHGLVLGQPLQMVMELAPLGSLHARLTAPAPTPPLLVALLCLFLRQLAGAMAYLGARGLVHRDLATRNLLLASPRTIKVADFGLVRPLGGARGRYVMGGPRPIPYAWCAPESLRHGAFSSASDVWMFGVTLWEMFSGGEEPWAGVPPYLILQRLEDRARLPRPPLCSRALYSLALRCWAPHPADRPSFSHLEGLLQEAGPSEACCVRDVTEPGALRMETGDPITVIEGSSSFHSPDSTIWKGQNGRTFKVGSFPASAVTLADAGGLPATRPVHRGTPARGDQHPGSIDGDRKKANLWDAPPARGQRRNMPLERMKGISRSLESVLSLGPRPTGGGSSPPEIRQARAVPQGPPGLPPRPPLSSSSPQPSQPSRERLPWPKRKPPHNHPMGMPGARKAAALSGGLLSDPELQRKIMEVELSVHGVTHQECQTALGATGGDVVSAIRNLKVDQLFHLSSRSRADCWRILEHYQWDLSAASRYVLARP
How it was run: (§1)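 Percent of control computed as (compound − positive control)/(negative control − positive control) × 100, DMSO defining 100% and positive control 0%. Each panel kinase exposed to 1 uM compound; values under 35% taken to mean the compound acts on that kinase.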

[2] = target: T2, kinases of the scanMAX Kinase assay panel (Homo sapiens, UniProt Q8WTQ7); settings: GRK7; 1 uM
T2 construct: purchased DiscoverX Co. (contract measurement) scanMAX Kinase assay panel
T2 sequence (Q8WTQ7 1-553): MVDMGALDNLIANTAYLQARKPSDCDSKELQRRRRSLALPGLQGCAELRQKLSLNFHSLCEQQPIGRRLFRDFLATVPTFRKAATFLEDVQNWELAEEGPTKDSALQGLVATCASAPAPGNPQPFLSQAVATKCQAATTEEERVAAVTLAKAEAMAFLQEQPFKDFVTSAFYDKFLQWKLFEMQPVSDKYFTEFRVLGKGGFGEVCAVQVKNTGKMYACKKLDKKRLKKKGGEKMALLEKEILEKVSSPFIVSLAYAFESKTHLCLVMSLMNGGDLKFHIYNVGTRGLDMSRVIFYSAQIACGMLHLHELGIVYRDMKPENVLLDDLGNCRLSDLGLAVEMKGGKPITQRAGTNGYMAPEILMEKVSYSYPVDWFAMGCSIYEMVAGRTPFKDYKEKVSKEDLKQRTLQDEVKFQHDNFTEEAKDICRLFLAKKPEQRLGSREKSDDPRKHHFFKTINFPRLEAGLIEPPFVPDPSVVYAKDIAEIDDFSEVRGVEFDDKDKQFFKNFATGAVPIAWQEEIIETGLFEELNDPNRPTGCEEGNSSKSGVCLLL
How it was run: as §1

[3] = target: T3, kinases of the scanMAX Kinase assay panel (Homo sapiens, UniProt Q99683); settings: ASK1; 1 uM
T3 construct: purchased DiscoverX Co. (contract measurement) scanMAX Kinase assay panel
T3 sequence (Q99683 1-1374): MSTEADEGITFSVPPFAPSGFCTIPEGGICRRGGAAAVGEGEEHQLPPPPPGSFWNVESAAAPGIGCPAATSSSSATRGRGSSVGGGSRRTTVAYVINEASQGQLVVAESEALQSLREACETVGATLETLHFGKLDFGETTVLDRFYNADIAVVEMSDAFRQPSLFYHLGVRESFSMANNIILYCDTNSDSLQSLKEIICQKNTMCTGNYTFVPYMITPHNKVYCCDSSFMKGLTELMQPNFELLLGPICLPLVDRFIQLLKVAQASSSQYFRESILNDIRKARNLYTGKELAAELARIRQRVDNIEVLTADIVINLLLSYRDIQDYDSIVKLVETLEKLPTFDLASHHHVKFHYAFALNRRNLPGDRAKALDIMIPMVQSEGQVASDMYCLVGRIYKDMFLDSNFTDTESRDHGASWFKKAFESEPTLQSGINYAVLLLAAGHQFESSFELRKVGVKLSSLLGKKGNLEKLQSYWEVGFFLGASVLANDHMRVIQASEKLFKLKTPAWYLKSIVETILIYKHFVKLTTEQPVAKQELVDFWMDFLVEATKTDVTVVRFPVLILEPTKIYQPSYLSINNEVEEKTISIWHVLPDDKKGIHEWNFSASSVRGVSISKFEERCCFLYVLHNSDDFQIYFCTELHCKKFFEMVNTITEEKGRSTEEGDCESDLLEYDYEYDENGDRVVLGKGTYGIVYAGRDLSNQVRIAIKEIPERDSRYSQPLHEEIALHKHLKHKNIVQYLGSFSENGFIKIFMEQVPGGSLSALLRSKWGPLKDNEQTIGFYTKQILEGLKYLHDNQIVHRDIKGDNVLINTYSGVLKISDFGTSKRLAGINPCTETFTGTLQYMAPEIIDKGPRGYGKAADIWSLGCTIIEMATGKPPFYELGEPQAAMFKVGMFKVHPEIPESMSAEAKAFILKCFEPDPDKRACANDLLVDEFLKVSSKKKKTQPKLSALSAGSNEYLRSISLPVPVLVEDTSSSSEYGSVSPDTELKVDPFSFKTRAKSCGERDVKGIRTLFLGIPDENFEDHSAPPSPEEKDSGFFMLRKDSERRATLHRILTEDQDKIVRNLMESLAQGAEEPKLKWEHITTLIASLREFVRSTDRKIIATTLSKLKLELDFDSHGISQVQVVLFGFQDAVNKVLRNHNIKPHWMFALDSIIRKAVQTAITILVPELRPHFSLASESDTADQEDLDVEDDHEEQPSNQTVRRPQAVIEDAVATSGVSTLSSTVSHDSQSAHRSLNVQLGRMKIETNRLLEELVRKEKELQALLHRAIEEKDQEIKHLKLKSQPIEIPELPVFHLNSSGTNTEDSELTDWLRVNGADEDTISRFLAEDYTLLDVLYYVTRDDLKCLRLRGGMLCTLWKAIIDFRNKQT
How it was run: as §1

Row | SMILES | remaining binding at 1 µM [1] [%] | remaining binding at 1 µM [2] [%] | remaining binding at 1 µM [3] [%]
1 | CNc1nc(Nc2ccc(C(=O)N3CCOCC3)cc2OC)nc2[nH]cc(C#N)c12 [Example 1, 2-((2-methoxy-4-(morpholine-4-carbonyl)phenyl)amino)-4-(methylamino)-7H-pyrrolo[2,3-d]pyrimidine-5-carbonitrile] | 85 | 71 | 57
2 | CC1(Nc2nc(Nc3cnn([C@H]4CCN(C5COC5)C[C@@H]4F)c3Cl)nc3[nH]cc(C#N)c23)CC1 [Example 52, 2-((5-chloro-1-((3S,4S)-3-fluoro-1-(oxetane-3-yl)piperidine-4-yl)-1H-pyrazole-4-yl)amino)((1-methylcyclopropyl)amino)-7H-pyrrolo[2,3-d]pyrimidine-5-carbonitrile] | 18 | 65 | 1.8
3 | CCNc1nc(Nc2ccc(C(=O)N3CCC(N4CCOCC4)CC3)cc2OC)nc2[nH]cc(C(F)(F)F)c12 [Example 104, (4-((4-(ethylamino)-5-(trifluoromethyl)-7H-pyrrolo[2,3-d]pyrimidine-2-yl)amino)-3-methoxyphenyl)(4-morpholinopiperidine-1-yl)methanone] | 16 | 78 | 82
